Results published in patent publication US20180344854A1, “SUPERSATURATED COMPOSITIONS OF BENZIMIDAZOLE COMPOUNDS” (Faes Farma, S.A., priority 2015, published 2018).
Converted amounts (≈) assume the structure as drawn.

Key:
Assay type in all cases: physicochemical
[1] = Solubility of cocrystals in water at room temperature, HPLC area; conditions: for Solubility (HPLC area of bilastine), run _1 / Solubility (HPLC area of bilastine), run _2 / solubility on dissolution of cocrystal in water: water; for Solubility (HPLC area of bilastine), run _1 / Solubility (HPLC area of bilastine), run _2: rt; for pH_1 / pH_2: pH of the solution; for solubility on dissolution of cocrystal in water: room temperature, 400 mg in 24 ml
Method: 25 μL sample were injected.
Solubility of cocrystals was determined by stirring the product in water at room temperature (400 mg of product in 24 ml of water, 60 vol.). The product was previously milled in order to reduce the crystal size effect. A sample is collected and filtered using a sintered funnel (n° 3) periodically (30, 60, 180 min and after overnight). The filtered solid was immediately analyzed by XRPD, while the mother liquors are filtered through a 0.22 um filter. […] The concentration of Bilastine is determined by HPLC area (in some experiments where a high solubility was detected the mother liquor was diluted by a factor 10). This concentration is compared with the bilastine concentration obtained in the same conditions in order to determine a relative solubility.

[2] = Solubility of bilastine after heating the slurry with acid at 95° C. and cooling (Method 2), HPLC-PDA; conditions: for solubility after 24 h: pH 4.3, after 24 h; for solubility at 2 h: aqueous buffer, thermodynamic from solid, pH 4.3, 95° C. 2 h, filtrate stood overnight at room temperature
Method: Alternative Method for Determining the Solubility
HPLC-PDA analysis was carried out using a Acquity BEH C18 1.7 μm 100×2.1 mm column at a temperature of 40° C. The isocratic mobile phase was composed of acetonitrile/methanol/ammonium bicarbonate 10 mM pH 8.7 (20.2/24.8/55.0%) (% v/v), at a flow rate of 0.6 mL/min. Samples were centrifuged 10 minutes at 4000 rpm at 20° C., and supernatant diluted to approx. 20-40 μg/mL in water. These diluted samples were kept at 18° C. until analysis. Quantization was performed at 220 nm by area comparison against a calibration curve obtained with bilastine working standard.
Method 2. A slurry of bilastine (100 mg) and the organic carboxylic acid (amount needed to obtain a pH of 4.0-4.5) in water (10 ml) was prepared. The mixture was stirred at 95° C. for 2 h and filtered. The filtrate was cooled to room temperature and allowed to stand overnight.
(§1) Citric acid was added to a slurry of 100 mg of bilastine in 10 mL of water to get a pH of 4.3 and the mixture was heated at 95° C. for 2 h. Then the solid was filtered off and the filtrate was allowed to stand overnight at room temperature. The solid was separated by centrifugation and the concentration of bilastine was determined by HPLC-PDA.
as §1, with “D,L-Tartaric” for “Citric”
as §1, with “Hydrochloric” for “Citric”, “acid 3.7% v/v” for “acid”

[3] = Aqueous solubility of bilastine in the pH range 5-8; conditions: water, aqueous buffer
Method: The above benzimidazole compounds with selective H1 antihistaminic activity present low solubility in water, which impedes the development of pharmaceutically acceptable means of administering said compounds in liquid form. For example, the solubility of bilastine in the pH range 5-8 is around 500 μg/mL.

| Solubility (HPLC area of bilastine), run _1 ([1]; 0 min) [area counts] | Solubility (HPLC area of bilastine), run _2 ([1]; 0 min) [area counts] | Solubility (HPLC area of bilastine), run _1 ([1]; 30 min) [area counts] | Solubility (HPLC area of bilastine), run _2 ([1]; 30 min) [area counts] | Solubility (HPLC area of bilastine), run _1 ([1]; 60 min) [area counts] | Solubility (HPLC area of bilastine), run _2 ([1]; 60 min) [area counts] | Solubility (HPLC area of bilastine), run _1 ([1]; 180 min) [area counts] | Solubility (HPLC area of bilastine), run _2 ([1]; 180 min) [area counts] | Solubility (HPLC area of bilastine), run _1 ([1]; 1080 min) [area counts] | Solubility (HPLC area of bilastine), run _2 ([1]; 1080 min) [area counts] | pH_1 ([1]; run 1, 30 min) | pH_1 ([1]; run 1, 60 min) | pH_1 ([1]; run 1, 180 min) | pH_1 ([1]; run 1, 1080 min) | pH_2 ([1]; run 2, 30 min) | pH_2 ([1]; run 2, 60 min) | pH_2 ([1]; run 2, 180 min) | pH_2 ([1]; run 2, 1080 min) | solubility on dissolution of cocrystal in water [1] | SMILES | further results |
| --- | --- | --- | --- | --- | --- | --- | --- | --- | --- | --- | --- | --- | --- | --- | --- | --- | --- | --- | --- | --- |
| 0 | 0 | 49106 | 48462 | 48363 | 48871 | 50828 | 50771 | 48315 | 47972 | 4.42 | 4.31 | 4.08 | 4.11 | 4.34 | 4.3 | 4.29 | 3.97 | 48000 area counts | CCOCCn1c(C2CCN(CCc3ccc(C(C)(C)C(=O)O)cc3)CC2)nc2ccccc21.CCOCCn1c(C2CCN(CCc3ccc(C(C)(C)C(=O)O)cc3)CC2)nc2ccccc21.O=C(O)CCCC(=O)O [GL(I)] | – |
| 0 | 0 | 61110 | 61019 | 61558 | 61328 | 60841 | 62159 | 48734 | 55535 | 4.25 | 4.22 | 4.06 | 4.00 | 4.25 | 4.22 | 4.11 | 3.98 | around 60000 area counts | CCOCCn1c(C2CCN(CCc3ccc(C(C)(C)C(=O)O)cc3)CC2)nc2ccccc21.CCOCCn1c(C2CCN(CCc3ccc(C(C)(C)C(=O)O)cc3)CC2)nc2ccccc21.O=C(O)CCCC(=O)O [GL(IV)] | – |
| 0 | 0 | 61517 | 62303 | 60930 | 60916 | 60628 | 61316 | 59755 | 60769 | 4.00 | 3.99 | 3.93 | 3.95 | 3.97 | 3.95 | 3.94 | 3.97 | 60000 area counts | CCOCCn1c(C2CCN(CCc3ccc(C(C)(C)C(=O)O)cc3)CC2)nc2ccccc21.O=C(O)CCCC(=O)O [GL(V)] | – |
| – | – | – | – | – | – | – | – | – | – | – | – | – | – | – | – | – | – | – | CCOCCn1c(C2CCN(CCc3ccc(C(C)(C)C(=O)O)cc3)CC2)nc2ccccc21 [bilastine, 2-[4-(2-{4-[1-(2-Ethoxyethyl)-1H-benzimidazol-2-yl]-1-piperidinyl}ethyl)phenyl]-2-methylpropanoic acid] | solubility after 24 h ([2]; citric acid): maintained; concentration of bilastine ([2]; hydrochloric acid (comparative), pH 4.3, compared with the pH-dependent solubility of FIG. 1): in accordance with its pH-dependent solubility; solubility after 24 h ([2]; tartaric acid): maintained; solubility at 2 h ([2]; water acidified with D,L-tartaric acid, D,L-tartaric acid): 2700 µg/mL (≈ 5.82 mM); solubility at 2 h ([2]; water acidified with citric acid, citric acid): 2700 µg/mL (≈ 5.82 mM); solubility [3]: ~500 µg/mL (≈ 1.08 mM) |
